According to patent US20180028477A1, “TREATMENT OF CARDIAC REMODELING AND OTHER HEART CONDITIONS” (C & C BIOPHARMA, LLC, priority 2013, published 2018):
“Also recorded” adds a separate entry of the source. One block for each compound: values may come before it.

Experiments:
[1] = tested on: Neonatal Rat Ventricular Myocytes (NRVMs); test: Serum (FBS)-induced hypertrophy of Neonatal Rat Ventricular Myocytes in vitro; format: cell-based; conditions: for viability: NRVMs (not shown); for order of potency for inhibitors / growth response to Fetal Bovine Serum / serum-stimulated myocyte growth (hypertrophy): NRVMs; for order of potency for inhibitors: FBS-induced growth; for growth response to Fetal Bovine Serum / serum-stimulated myocyte growth (hypertrophy): pre-treatment with a range of doses
Procedure: The cells were also treated with DMSO (light gray bars) or a vehicle (dark gray bars) as a negative control. The order of potency for inhibitors was DMSO<7MI<TSA<8MI. Viability was unchanged (not shown).
Next, the ability of 7MI and 8MI to inhibit hypertrophy in vitro was tested (FIG. 2A). […] However, fetal calf serum, which contained a rich variety of growth factors, was chosen as the most robust and multifactorial stimulus for cardiomyocyte growth available, reasoning that a similarly robust and powerful inhibitor would be required to block this hypertrophy.

[2] = Metabolic stability in human liver microsomes fortified with NADPH (Example 11); format: in vitro ADME; design: CLint scaled: dose or concentration left out as unconfirmed; conditions: for K (rate constant): 0.5 mg/mL human liver microsomes, 1 mM NADPH, pH 7.4, 37° C.; for Clhp (hepatic clearance) / CLint scaled / metabolic stability / clearance in the liver, in words / intrinsic clearance (Clint) rate, fold higher than 7MI / intrinsic clearance (Clint) rate, fold higher than 8MI: human liver microsomes; for CLint scaled: pH 7.4, from mono-exponential decay model, read-out: Clint (intrinsic clearance); for metabolic stability / clearance in the liver, in words: comparison of 7MI, 8MI, BML-210, TSA; for intrinsic clearance (Clint) rate, fold higher than 7MI: ratio to 7MI; for intrinsic clearance (Clint) rate, fold higher than 8MI: ratio to 8MI
Description: Drug clearance is a measure of the ability of the body or an organ to eliminate a drug from the blood circulation. Systemic clearance is a measure of the ability of the entire body to eliminate the drug. Organ clearance is a measure of the ability of a particular organ (hepatic or renal) to eliminate the drug. For hepatic clearance, the liver is the major organ for drug metabolism and the key organ for drug clearance. Human liver microsomes (HLM) fortified with NADPH is a standard way to measure in vitro metabolism and predict in vivo clearance. CLint (intrinsic clearance) is the link between in vitro and in vivo studies, which can be estimated based on the mono-exponential decay model: Ct=C X e^−kt.
Human liver microsomes fortified with NADPH is a standard approach to evaluate metabolic stability mediated by CYP (cytochrome P450) enzymes in vitro. The reaction mixture (0.4 mL) contained 0.5 mg/mL human liver microsomes, 100 mM phosphate buffer (pH 7.4) and […] of test compounds. The mixture was first warmed up for 5 min in a 37° C. shaking water bath and then NADPH at a final concentration of 1 mM was added to initiate the reaction. Aliquots […] were taken at specified time points and mixed with ice-cold methanol (containing internal standard) to stop the reaction. The mixture was vortexed briefly and centrifuged for protein precipitation. An aliquot of […] supernatant was subject to LC-MS/MS analysis. The percentage of compound disappearance was used to calculate the rate of metabolism.

HDACs = conditions: background statement; cited from earlier work
[3] = mice, previously reported, cited from earlier work

K (rate constant) [2]: 0.0027 min⁻¹ | Clhp (hepatic clearance) [2]: 2.45 mL/min/kg | CLint scaled [2]: 2.78 mL/min/kg
Structure (SMILES): Nc1ccccc1NC(=O)CCCCCC(=O)Nc1ccc(Br)cc1 [7MI]
viability [1]: unchanged | order of potency for inhibitors [1]: DMSO<7MI<TSA<8MI | growth response to Fetal Bovine Serum / serum-stimulated myocyte growth (hypertrophy) [1]: sufficient to block myocyte hypertrophy; also recorded: depressed growth response

Structure (SMILES): Nc1ccccc1NC(=O)CCCCCCC(=O)Nc1ccccc1 [BML-210, reference compound]
K (rate constant) [2]: 0.0116 min⁻¹ | Clhp (hepatic clearance) [2]: 7.57 mL/min/kg | metabolic stability / clearance in the liver, in words [2]: high clearance compound | intrinsic clearance (Clint) rate, fold higher than 7MI [2]: 4.3 fold | intrinsic clearance (Clint) rate, fold higher than 8MI [2]: 2.5 fold | CLint scaled [2]: 11.9 mL/min/kg

Structure (SMILES): O=C(CCCCCN1C(=O)c2cccc3cccc(c23)C1=O)NO [Scriptaid]
HDAC inhibition range (HDACs): low nanomolar range

Structure (SMILES): CC(/C=C/C(=O)NO)=C\[C@@H](C)C(=O)c1ccc(N(C)C)cc1 [TSA, Trichostatin A, reference compound]
survival at the tolerated daily dosage ([3]; 1 mg/kg): not all of the mice survived | tolerated daily dosage [3]: 1 mg/kg | viability [1]: unchanged | order of potency for inhibitors [1]: DMSO<7MI<TSA<8MI | growth response to Fetal Bovine Serum / serum-stimulated myocyte growth (hypertrophy) [1]: depressed growth response | HDAC inhibition range (HDACs): low nanomolar range | K (rate constant) [2]: 0.0088 min⁻¹ | Clhp (hepatic clearance) [2]: 6.30 mL/min/kg | metabolic stability / clearance in the liver, in words [2]: metabolically cleared much faster than 7MI or 8MI | intrinsic clearance (Clint) rate, fold higher than 7MI [2]: 3.2 fold | intrinsic clearance (Clint) rate, fold higher than 8MI [2]: 1.9 fold | CLint scaled [2]: 9.05 mL/min/kg
